Data reported in patent US20070032502A1, “Quinazoline derivatives useful in cancer treatment” (Schering Corporation, priority 2005, published 2007).
Like-named read-outs stand apart in the source and are kept apart here.

Assays:
[1] = test system: MB468; assay: Proliferation assay (Calcein AM viability, 72 hours); assay type: cell-based
Procedure: This assay measures the growth suppression effects of small molecules in cells with mutant p53 vs. p53 null background. It uses Calcein AM to measure cellular viability. Cells (p53 null and mutant) are harvested and plated at 5000 cells per well in a 96-well tissue culture plate. The volume of cells in growth media is 100 µl. Serial dilutions (2× concentration) of compounds are then made and transferred to the plate of cells. The volume of compounds in the growth media is 100 μL. This dilution of compound with cells gives a 1× final dilution of compound (200 μL total volume). Plates are then incubated at 37° C. for 72 hours. Media is then poured off and Calcein AM is added at the appropriate concentration and the plates are incubated in the dark for 15 minutes and read for fluorescence. […] Compounds having EC50 values of 6 uM or higher have been assigned the letter “D”. These letter rating has been used throughout in the data tables above.

[2] = molecular target: GST-p53 DNA binding domain (aa 92-aa 312) (Homo sapiens, UniProt P04637); assay: Scintillation Proximity Assay (SPA), displacement of 3H STANDARD COMPOUND; conditions: for remaining activity at 2 µg/mL: 1 h
Source text: Most of the oncogenic mutants of the tumor suppressor protein p53 lack sequence specific DNA binding activity at physiological temperature due to conformational changes in the DNA binding domain. Small molecules and peptide which bind to the p53 DNA binding domain stabilize the conformation and restore DNA binding activity to mutant p53 protein (Science 286, 2507-2510, 1999; PNAS, 99, 937-942, 2002). Using ^3H STANDARD COMPOUND (which is ^3H of the compound #1 of the present invention; the * Carbon atom is the one labeled; structure shown below), [drawing 2234] a radio labeled small molecule which binds to p53, and the GST-p53 DNA binding domain (aa 92-aa 312), we have developed a quantitative screening assay. The assay is based on Scintillation Proximity Assay (SPA) technology, developed by Amersham Biosciences to measure molecular interactions. Briefly, the complex of GST-p53, ^3H STANDARD and Glutathione-SPA beads (Amersham Biosciences) are incubated with mixing for 1 hr at room temperature in the presence of the novel compounds to be screened. The signal is read on Microbeta. The compounds which have the ability to displace ^3H STANDARD COMPOUND are selected. Such molecules will stabilize the conformation and restore DNA binding activity to mutant p53 protein.
The above assay was used to determine the ability of the compounds of this invention to restore DNA binding activity to mutant p53 and the results for selected compounds have been given above in various tables.
A letter rating corresponding to % Residual total binding (T) @ 2 ug/mL of drug (i.e., compound of the present invention) from this assay have been assigned as follows: Compounds having % Residual T values of from 0% to less than 20% have been assigned the letter “A”. Compounds having % Residual T values of from 20% to less than 40% have been assigned the letter “B”. Compounds having % Residual T values of from 40% to less than 80% have been assigned the letter “C”. Compounds having % Residual T values of 80% or higher have been assigned the letter “D”. The exact % Residual T values @ 2 ug/mL for some illustrative compounds are shown below: […]

[3] = test system: Human tumor DLD1 cells containing mutant p53; assay: Soft agar assay (colony outgrowth); assay type: cell-based; conditions: DLD-1, 10-16 days
Procedure: This method assesses the ability of cells to grow in the absence of adhesion, which is a characteristic of tumorigenic cell lines.
Human tumor DLD1 cells containing mutant p53 are suspended in growth medium containing 0.3% agarose and an indicated concentration of small molecule. The solution is overlayed onto growth medium solidified with 0.6% agarose containing the same concentration of the small molecule as the top layer. After the top layer is solidified the plates are incubated for 10-16 days at 37° C. under 5% CO2 to allow colony outgrowth. After incubation, colonies are stained by overlaying the agar with a solution of MTT (3-[4,5-dimethyl-thiazol-2-yl]-2,5-diphenyltetrazolium bromide; Thiazolyl blue; […] in PBS). Colonies are counted to measure growth and efficacy of the small molecule.

[4] = test system: pancreatic cells; assay: Potentiation of growth suppression with temozolomide (proliferation assay, temozolomide IC50); assay type: cell-based; conditions: in combination with temozolomide, 72 hrs
Procedure: That the compounds of the present invention potentiate the growth suppression activity of temozolomide is illustrated by the fact that the compounds lower the temolozomide IC50 in various cell lines. The proliferation assay used is similar to that set forth above, and comprises the following general steps. • TMZ is diluted 2 fold in complete medium. • Cells are harvested and placed in each well with diluted TMZ. Cell conc. is 5000 cells per well in complete medium. • Appropriate concentration of compounds of present invention are then added to each well in combination with diluted TMZ. • Plates are incubated at 37° C. for 72 hrs. • Medium is poured off and 50 μL per well of Calcein AM (10 uM is added. Plate is then read in the fluorescent plate reader.
The extent of increase can be quantitated as is shown below in FIG. 5.

[5] = 72 h, MB468 cells, 72 hours, read-out: EC50 rating according to the proliferation assay (MB468)
[6] = 72 h, MB468 cells, 72 hours, read-out: PROLIFERATION ASSAY EC50 MB468
[7] = 2 ug/mL of drug, lower is better, read-out: % Residual T @ 2 ug/mL rating according to scintillation proximity assay (SPA)
[8] = 2 ug/mL of drug, lower is better, read-out: SPA ASSAY % Residual T @ 2 ug/mL of drug (Average of)
[9] = MB468 cells, read-out: PROFILE-RATION ASSAY EC50 MB468
[10] = MB468, read-out: PROLIFERATION ASSAY EC50 MB468
[11] = read-out: SPA ASSAY (% residual T @ 2 ug/mL of drug)
[12] = MB168 [sic], read-out: PROFILERATION ASSAY EC50 MB168

Sequence of GST-p53 DNA binding domain (aa 92-aa 312) (P04637 92-312): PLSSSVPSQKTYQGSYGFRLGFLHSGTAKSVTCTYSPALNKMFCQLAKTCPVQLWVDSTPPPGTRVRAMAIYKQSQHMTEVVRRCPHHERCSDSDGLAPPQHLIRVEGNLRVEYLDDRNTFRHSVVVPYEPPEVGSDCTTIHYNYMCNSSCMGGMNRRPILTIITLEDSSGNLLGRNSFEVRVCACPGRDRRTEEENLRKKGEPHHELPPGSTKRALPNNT

CN(C)CCCNc1nc(CN2CCN(C(c3ccc(Cl)cc3)c3ccc(Cl)cc3)CC2)nc2ccccc12 [Example 1, N′-(2-{4-[BIS-(4-CHLOROPHENYL)METHYL]PIPERAZIN-1-YLMETHYL}QUINAZOLIN-4-YL)-N,N-DIMETHYLPROPANE-1,3-DIAMINE]
EC50 [1, 5]: < 2 µM | EC50 [1, 6]: 1.1 µM | remaining activity at 2 µg/mL [2, 7]: 0 to 20% | remaining activity at 2 µg/mL [2, 8]: 16.1% | IC50 [3]: 390 nM

CN(C)CCCNc1nc(CN2CCN(Cc3cccc4ccccc34)CC2)nc2ccccc12 [Example 25-36]
EC50 [1, 6]: 2 µM | EC50 [1, 9]: 4 to 6 µM | SPA Assay (% residual T @ 2 ug/mL of drug) ([2]; 2 ug/mL of drug): B (Compounds having % Residual T values of from 20% to less than 40% have been assigned the letter “B”) | remaining activity at 2 µg/mL [2, 8]: 27.9% | sensitivity of pancreatic cancer cells to temozolomide [4]: increase in sensitivity

COC(=O)C1CCN(c2nc(CN3CCN(C(c4ccc(Cl)cc4)c4ccc(Cl)cc4)CC3)nc3ccccc23)CC1 [Example 30-29]
EC50 [1, 10]: 4 to 6 µM | remaining activity at 2 µg/mL [2, 11]: > 80%

CCN(CC)C(=O)C1CCCN(c2nc(CN3CCN(C(c4ccc(Cl)cc4)c4ccc(Cl)cc4)CC3)nc3ccccc23)C1 (centres unmarked) [Example 30-25]
EC50 [1, 10]: > 6 µM | remaining activity at 2 µg/mL [2, 11]: > 80%

CCC(C)(C)C1CCC(N2CCN(Cc3nc(NCCCN(C)C)c4ccccc4n3)CC2)C1 (centres unmarked) [Example 25-73]
EC50 [1, 9]: 4 to 6 µM | SPA Assay (% residual T @ 2 ug/mL of drug) ([2]; 2 ug/mL of drug): C (Compounds having % Residual T values of from 40% to less than 80% have been assigned the letter “C”)

CN(C)CCCNc1nc(CN2CCN(C(c3ccccc3)c3ccc(OC(F)(F)F)cc3)CC2)nc2ccccc12 (centres unmarked) [Example 11-1]
EC50 ([1]; MB468 cells, 72 hours, read-out: PROLIFERATION ASSAY EC50 MB468): 1.4 µM | remaining activity at 2 µg/mL [2, 8]: 27.9%

CN(C)CCCOc1nc(CN2CCN(C(c3ccc(Cl)cc3)c3ccc(Cl)cc3)CC2)nc2ccccc12 [Example 16, [3-(2-{4-[BIS-(4-CHLOROPHENYL)METHYL]PIPERAZIN-1-YLMETHYL}QUINAZOLIN-4-YLOXY)PROPYL]DIMETHYLAMINE]
EC50 ([1]; 72 h, read-out: EC50 rating according to the proliferation assay (MB468)): > 6 µM | remaining activity at 2 µg/mL ([2]; read-out: % Residual T @ 2 ug/mL rating according to scintillation proximity assay (SPA)): > 80%

COc1ccc(NC(=O)N2CCN(Cc3nc(NCCCN(C)C)c4ccccc4n3)CC2)cc1 [Example 28-20]
EC50 [1, 12]: > 6 µM | SPA ASSAY (% Residual T @ 2 ug/mL of drug (average of)) ([2]; 2 ug/mL of drug): B (Compounds having % Residual T values of from 20% to less than 40% have been assigned the letter “B”) | remaining activity at 2 µg/mL [2, 8]: 38%

CCC(C)(C)C1CCC(N2CCN(Cc3nc(NCCCN(C)C)c4ccccc4n3)CC2)CC1 (centres unmarked) [Example 25-90]
EC50 [1, 6]: 2 µM | EC50 [1, 9]: 2 to 4 µM | SPA Assay (% residual T @ 2 ug/mL of drug) ([2]; 2 ug/mL of drug): B (Compounds having % Residual T values of from 20% to less than 40% have been assigned the letter “B”) | remaining activity at 2 µg/mL [2, 8]: 38.1%

CN(CCc1ccccn1)c1nc(CN2CCN(C(c3ccc(Cl)cc3)c3ccc(Cl)cc3)CC2)nc2ccccc12 [Example 30-14]
EC50 [1, 10]: 4 to 6 µM | remaining activity at 2 µg/mL [2, 11]: > 80%

Clc1ccc(C(c2ccc(Cl)cc2)N2CCN(Cc3nc(N4CCOCC4)c4ccccc4n3)CC2)cc1 [Example 30-3]
EC50 [1, 10]: > 6 µM | remaining activity at 2 µg/mL [2, 11]: > 80%

CN(C)CCCNc1nc(CN2CCN(Cc3cccc4cc[nH]c34)CC2)nc2ccccc12 [Example 25-29]
EC50 [1, 9]: 4 to 6 µM | SPA Assay (% residual T @ 2 ug/mL of drug) ([2]; 2 ug/mL of drug): B (Compounds having % Residual T values of from 20% to less than 40% have been assigned the letter “B”) | remaining activity at 2 µg/mL [2, 8]: 37.9%

NC(=O)C1CCN(c2nc(CN3CCN(C(c4ccc(Cl)cc4)c4ccc(Cl)cc4)CC3)nc3ccccc23)CC1 [Example 30-28]
EC50 [1, 10]: > 6 µM | remaining activity at 2 µg/mL [2, 11]: > 80%

CN(C)[C@@H]1CCN(c2nc(CN3CCN(C(c4ccc(Cl)cc4)c4ccc(Cl)cc4)CC3)nc3ccccc23)C1 [Example 30-26]
EC50 [1, 10]: > 6 µM | remaining activity at 2 µg/mL [2, 11]: 40 to 80%

O=c1[nH]c2ccccc2n1C1CCN(c2nc(CN3CCN(C(c4ccc(Cl)cc4)c4ccc(Cl)cc4)CC3)nc3ccccc23)CC1 [Example 30-30]
EC50 [1, 10]: 4 to 6 µM | remaining activity at 2 µg/mL [2, 11]: 40 to 80%

OC1CCN(c2nc(CN3CCN(C(c4ccc(Cl)cc4)c4ccc(Cl)cc4)CC3)nc3ccccc23)C1 (centres unmarked) [Example 30-4]
EC50 [1, 10]: > 6 µM | remaining activity at 2 µg/mL [2, 11]: > 80%

CN(C)CCCNc1nc(CN2CCN(C(=O)Nc3ccc(C#N)cc3)CC2)nc2ccccc12 [Example 28-13]
EC50 [1, 12]: > 6 µM | SPA ASSAY (% Residual T @ 2 ug/mL of drug (average of)) ([2]; 2 ug/mL of drug): C (Compounds having % Residual T values of from 40% to less than 80% have been assigned the letter “C”)

CN(C)CCCNc1nc(CN2CCN(C(=O)Nc3ccc(Cl)c(Cl)c3)CC2)nc2ccccc12 [Example 28-39]
EC50 [1, 12]: 4 to 6 µM | SPA ASSAY (% Residual T @ 2 ug/mL of drug (average of)) ([2]; 2 ug/mL of drug): B (Compounds having % Residual T values of from 20% to less than 40% have been assigned the letter “B”) | remaining activity at 2 µg/mL [2, 8]: 29.9%

Cc1cc(C)c(NC(=O)N2CCN(Cc3nc(NCCCN(C)C)c4ccccc4n3)CC2)c(C)c1 [Example 28-4]
EC50 [1, 12]: 4 to 6 µM | SPA ASSAY (% Residual T @ 2 ug/mL of drug (average of)) ([2]; 2 ug/mL of drug): C (Compounds having % Residual T values of from 40% to less than 80% have been assigned the letter “C”)

CN(C)CCCNc1nc(CN2CCN(C(c3ccccc3)c3ccc(OC(F)(F)F)cc3)CC2)nc2ccccc12 (single isomer, unassigned; (+)) [11 isomer 1, (+)-N,N-DIMETHYL-N′-[2-{4-[PHENYL-(4-TRIFLUOROMETHOXYPHENYL)METHYL]-PIPERAZIN-1-YLMETHYL}QUINAZOLIN-4-YL]PROPANE-1,3-DIAMINE]
EC50 [1, 5]: < 2 µM | remaining activity at 2 µg/mL [2, 7]: 20 to 40%

OC1CCN(c2nc(CN3CCN(C(c4ccc(Cl)cc4)c4ccc(Cl)cc4)CC3)nc3ccccc23)CC1 [Example 30-27]
EC50 [1, 10]: 4 to 6 µM | remaining activity at 2 µg/mL [2, 11]: > 80%
